# Data published in PubChem BioAssay AID2060884 (Molecular Pharmacology Branch, DTP, NCI, 2025).
# Tested on: NCI-H929 complex spheroids, viability % test/control
# Test: Anticancer human tumor NCI-H929 cell line growth inhibition [RAS];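 further: compound exposure lasted seven days before viability was read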
# Settings: for IC50: curve of first compound; for viability, T/C: stronger effect = lower value
# Text: RAS pathway inhibitors in Combinations in Complex Spheroids
# A high-throughput screen of multi-cell type tumor spheroids was designed to identify active combinations of RAS pathway inhibitors and targeted small molecules. Complex spheroids include a stromal component modeled by human endothelial cells (HUVEC) and fibroblasts modeled by human mesenchymal stem cells (MSCs). The concentration ranges selected for each drug and investigational agent were based upon clinically achievable concentrations if the clinical Cmax of the agent was known.
# Compounds. The drugs and investigational agents: abemaciclib (NSC768073), cobimetinib (NSC768068), divarasib (GDC6063, NSC841802), docetaxel (NSC628503), GDC-1971 (RLY-1971, NSC841576), gemcitabine (NSC613327), inavolisib (NSC800729), ipatasertib (NSC767898), KB-0742 (NSC834161), MRTX-1133 (NSC836407), osimertinib (NSC779217), RMC-4630 (NSC839698), RMC-6236 (NSC851965), RMC-6291 (NSC852671), Ro-3306 (NSC812927), sapanisertib (NSC764658), SN-38 (NSC673596), staurosporine (NSC755774), SY5609 (NSC837396), and tovorafenib (DAY101, NSC766906), were obtained from the National Cancer Institute (NCI) Developmental Therapeutics Program Chemical Repository. The FDA-approved anticancer drug set is available from the NCI Developmental Therapeutics Program. […] The stock solutions were prepared in dimethyl sulfoxide (DMSO, Sigma-Aldrich, St. Louis, MO, cat. D2650) at 800-fold the tested concentration and stored at -70 degrees C prior to their use. All drugs and investigational agents were tested over a range starting from a high concentration at or near the clinical Cmax and decreasing in half-log increments. If the clinical Cmax for an agent had not been determined, the highest concentration tested was 10 microM.
# Cell Culture. All cells were maintained in an incubator at 37 degrees C and 5% CO2 with 95% humidity. The PDC lines were cultured according to standard operating procedures established by the NCI PDMR. All PDCs were thawed and cultured in Matrigel-coated flasks prepared with a working solution of 1X Ham's F-12 nutrient mix, without supplementation (Invitrogen, Waltham, MA, cat. 11765054), 100 U/mL penicillin-streptomycin (Invitrogen, cat. 15140122), and 2.5% Matrigel (Corning Inc., Corning, NY, cat. 354248) for the first three passages. The 362531-283-R-J2-PDC and 782815-120-R-J1-PDC lines were cultured in 6C/Colon 1B media, which includes advanced DMEM/F-12 (Thermo Fisher Scientific, cat. 12634028), 10 mM HEPES (Thermo Fisher Scientific, cat. 15630080), 1X GlutaMAX supplement (Thermo Fisher Scientific, cat. 35050061), 0.1 mg/mL primocin (InvivoGen, San Diego, CA, cat. ant-pm-2), 10% defined fetal bovine serum, heat inactivated (HyClone Laboratories Inc., Logan, UT, cat. SH30070.03HI), 50% L-WRN conditioned media (ATCC, cat. CRL-3276), 1.25 mM N-Acetyl-L-cysteine (Sigma-Aldrich, cat. A9165), 10 mM nicotinamide (Sigma-Aldrich, cat. N0636), 1X B-27 supplement (Thermo Fisher Scientific, cat. 17504044), 1X N-2 supplement (Thermo Fisher Scientific, cat. 17502048), 50 ng/mL human EGF (Thermo Fisher Scientific, cat. PHG0311), and 10 microM Y-27632 dihydrochloride (Tocris Bioscience, cat. 1254). The K12877-001-R-J1-PDC line was cultured in 6I media, which includes all 6C/Colon 1B media plus 10 ng/mL human FGF-10 (PeproTech, cat. 100-26), 1 ng/mL human FGF-2 (PeproTech, cat. 100-18B), 1 µM prostaglandin E2 (Tocris Bioscience, cat. 2296), […] hydrocortisone (Sigma-Aldrich, cat. H4001), and […] bovine insulin (Sigma-Aldrich, cat. I6634). The K86415-001-R-J1-PDC line was cultured in 6D media, which includes all 6C/Colon 1B media components minus the L-WRN conditioned media. The 485176-168-R4-J1-PDC was cultured in PANC media, which includes all 6C/Colon 1B media plus 100 ng/mL human FGF-10 (PeproTech, cat. 100-26), 500 nM SB-431542 (Selleckchem, cat. S1067), and 10 nM gastrin (Tocris Bioscience, cat. 3006). […]
# [1] = second compound 0.0316 µM, first compound 0.0316 µM
# [2] = second compound 0.0316 µM, first compound 0.1 µM
# [3] = second compound 0.0316 µM, first compound 0.316 µM
# [4] = second compound 0.0316 µM, first compound 1 µM
# [5] = second compound 0.0316 µM, first compound 3.16 µM
# [6] = second compound 0.0316 µM, first compound 10 µM
# [7] = second compound 0.1 µM, first compound 0.0316 µM
# [8] = second compound 0.1 µM, first compound 0.1 µM
# [9] = second compound 0.1 µM, first compound 0.316 µM
# [10] = second compound 0.1 µM, first compound 1 µM
# [11] = second compound 0.1 µM, first compound 3.16 µM
# [12] = second compound 0.1 µM, first compound 10 µM
# [13] = second compound 0.316 µM, first compound 0.0316 µM
# [14] = second compound 0.316 µM, first compound 0.1 µM
# [15] = second compound 0.316 µM, first compound 0.316 µM
# [16] = second compound 0.316 µM, first compound 1 µM
# [17] = second compound 0.316 µM, first compound 3.16 µM
# [18] = second compound 0.316 µM, first compound 10 µM
# [19] = second compound 1 µM, first compound 0.0316 µM
# [20] = second compound 1 µM, first compound 0.1 µM
# [21] = second compound 1 µM, first compound 0.316 µM
# [22] = second compound 1 µM, first compound 1 µM
# [23] = second compound 1 µM, first compound 3.16 µM
# [24] = second compound 1 µM, first compound 10 µM
compound,measurement,setting,value
CC(C)NCC(C(=O)N1CCN(c2ncnc3c2C(C)CC3O)CC1)c1ccc(Cl)cc1 (centres undefined) + C=CC(=O)N1CCN(c2nc(OCC3CCCN3C)nc3c(F)c(-c4nc(N)cc(C)c4C(F)(F)F)c(Cl)cc23)C(C)C1,IC50,second compound 0.00316 µM,2.82 µM
same,IC50,second compound 0.01 µM,3.07 µM
same,IC50,second compound 0.0316 µM,4.68 µM
same,IC50,second compound 0.1 µM,4.08 µM
same,IC50,second compound 0.316 µM,2.49 µM
same,IC50,second compound 1 µM,3.66 µM
same,"viability, T/C","second compound 0.00316 µM, first compound 0.0316 µM",102%
same,"viability, T/C","second compound 0.00316 µM, first compound 0.1 µM",101%
same,"viability, T/C","second compound 0.00316 µM, first compound 0.316 µM",108%
same,"viability, T/C","second compound 0.00316 µM, first compound 1 µM",101%
same,"viability, T/C","second compound 0.00316 µM, first compound 3.16 µM",44.4%
same,"viability, T/C","second compound 0.00316 µM, first compound 10 µM",12.1%
same,"viability, T/C","second compound 0.01 µM, first compound 0.0316 µM",103%
same,"viability, T/C","second compound 0.01 µM, first compound 0.1 µM",103%
same,"viability, T/C","second compound 0.01 µM, first compound 0.316 µM",105%
same,"viability, T/C","second compound 0.01 µM, first compound 1 µM",104%
same,"viability, T/C","second compound 0.01 µM, first compound 3.16 µM",48.5%
same,"viability, T/C","second compound 0.01 µM, first compound 10 µM",15.1%
same,"viability, T/C",[1],97.5%
same,"viability, T/C",[2],103%
same,"viability, T/C",[3],108%
same,"viability, T/C",[4],103%
same,"viability, T/C",[5],67.6%
same,"viability, T/C",[6],16.1%
same,"viability, T/C",[7],101%
same,"viability, T/C",[8],105%
same,"viability, T/C",[9],110%
same,"viability, T/C",[10],108%
same,"viability, T/C",[11],60%
same,"viability, T/C",[12],15.2%
same,"viability, T/C",[13],102%
same,"viability, T/C",[14],105%
same,"viability, T/C",[15],109%
same,"viability, T/C",[16],106%
same,"viability, T/C",[17],35.4%
same,"viability, T/C",[18],15.4%
same,"viability, T/C",[19],114%
same,"viability, T/C",[20],115%
same,"viability, T/C",[21],108%
same,"viability, T/C",[22],108%
same,"viability, T/C",[23],56.3%
same,"viability, T/C",[24],6.44%
CC(=O)OC12COC1CC(O)C1(C)C(=O)C(O)C3=C(C)C(OC(=O)C(O)C(NC(=O)OC(C)(C)C)c4ccccc4)CC(O)(C(OC(=O)c4ccccc4)C21)C3(C)C (centres undefined) + C#Cc1c(F)ccc2cc(O)cc(-c3ncc4c(N5CC6CCC(C5)N6)nc(OCC56CCCN5CC(F)C6)nc4c3F)c12,IC50,second compound 0.0316 µM,< 0.0316 µM
same,IC50,second compound 0.1 µM,< 0.0316 µM
same,IC50,second compound 0.316 µM,< 0.0316 µM
same,IC50,second compound 1 µM,< 0.0316 µM
same,IC50,second compound 3.16 µM,< 0.0316 µM
same,IC50,second compound 10 µM,< 0.0316 µM
same,"viability, T/C",[1],0.76%
same,"viability, T/C",[2],1.3%
same,"viability, T/C",[3],1.24%
same,"viability, T/C",[4],1.01%
same,"viability, T/C",[5],1.67%
same,"viability, T/C",[6],0.89%
same,"viability, T/C",[7],1.76%
same,"viability, T/C",[8],0.93%
same,"viability, T/C",[9],1.5%
same,"viability, T/C",[10],1.51%
same,"viability, T/C",[11],1.27%
same,"viability, T/C",[12],0.89%
same,"viability, T/C",[13],1.1%
same,"viability, T/C",[14],0.78%
same,"viability, T/C",[15],1.16%
same,"viability, T/C",[16],1.88%
same,"viability, T/C",[17],1.5%
same,"viability, T/C",[18],0.79%
same,"viability, T/C",[19],1.5%
same,"viability, T/C",[20],0.8%
same,"viability, T/C",[21],1.05%
same,"viability, T/C",[22],2.04%
same,"viability, T/C",[23],1.33%
same,"viability, T/C",[24],0.88%
same,"viability, T/C","second compound 3.16 µM, first compound 0.0316 µM",1.91%
same,"viability, T/C","second compound 3.16 µM, first compound 0.1 µM",0.99%
same,"viability, T/C","second compound 3.16 µM, first compound 0.316 µM",1.37%
same,"viability, T/C","second compound 3.16 µM, first compound 1 µM",0.71%
same,"viability, T/C","second compound 3.16 µM, first compound 3.16 µM",1.08%
same,"viability, T/C","second compound 3.16 µM, first compound 10 µM",0.76%
same,"viability, T/C","second compound 10 µM, first compound 0.0316 µM",1.78%
same,"viability, T/C","second compound 10 µM, first compound 0.1 µM",0.88%
same,"viability, T/C","second compound 10 µM, first compound 0.316 µM",1.86%
same,"viability, T/C","second compound 10 µM, first compound 1 µM",1.55%
same,"viability, T/C","second compound 10 µM, first compound 3.16 µM",1.23%
same,"viability, T/C","second compound 10 µM, first compound 10 µM",0.77%
